# Source: patent EP0339444A1, “Elaiophylin derivatives, process for their preparation and use as medicaments” (HOECHST AKTIENGESELLSCHAFT, priority 1988, dated 1989)
# Test system: Haemunchus contortus
# Assay: Anthelmintic activity in lambs artificially infected with abomasal nematodes (coproscopy up to 14 days after application, then necropsy with helminthological work-up)
# Assay type: in vivo
# Conditions: Lämmer 30 bis 40 kg
# From the text: Die anthelminthische Wirkung der Elaiophylinderivate wurde an Lämmern mit 30 bis 40 kg Körpergewicht untersucht. Dazu wurden die Lämmer artifiziell mit Infektionsstadien von Labmagennematoden (Haemunchus contortus) infiziert. Nach Abschluß der Entwicklungszeit (Präpatenzperiode) der Nematoden erfolgte die Applikation der Elaiophylinderivate.
# Durch koproskopische Untersuchungen vor und bis zu 14 Tagen nach der Applikation der Elaiophylinderivate und anschließender Sektion mit helminthologischer Aufarbeitung wurde die prozentuale Reduktion der Schaf-Nematoden ermittelt (s. Tabelle 7). Als Vergleichssubstanz diente Elaiophylin. Zusätzlich wurde auch noch die antibakterielle Aktivität der erfindungsgemäßen Elaiophylinderivate gegen Staph. aureus und Strept. pyogenes ermittelt. Überraschenderweise zeigen die erfindungsgemäßen Verbindung keine oder nur sehr geringe antibakterielle Aktivität. Gerade deshalb eignen sich die erfindungsgemäßen Verbindungen insbesondere für den Einsatz als Anthelminthika, da hier eine antibakterielle Wirkung unerwünscht ist.
SMILES,"Reduktion v. H. contortus (%) (Dosierung 5,0 mg/kg (oral))","Reduktion v. H. contortus (%) (Dosierung 2,5 mg/kg (s.c.))"
CCC1C(C)OC(O)(C(C)C(O)C(C)C2OC(=O)C3=NNCC3/C=C/C(C)C(C(C)C(O)C(C)C3(O)CC(OC4CC(O)C(O)C(C)O4)C(CC)C(C)O3)OC(=O)C3=NNCC3/C=C/C2C)CC1OC1CC(O)C(O)C(C)O1 (stereo not shown) [Verbindung 1],35-45%,
CCC1C(C)OC(O)(C(C)C(O)C(C)C2OC(=O)C3=NNCC3/C=C/C(C)C(C(C)C(O)C(C)C3(O)CC(OC4CC(OC(C)=O)C(OC(C)=O)C(C)O4)C(CC)C(C)O3)OC(=O)C3=NNCC3/C=C/C2C)CC1OC1CC(OC(C)=O)C(OC(C)=O)C(C)O1 (stereo not shown) [Verbindung 2],40-50%,
CCOC(=O)C1NN=C2C(=O)OC(C(C)C(O)C(C)C3(O)CC(OC4CC(O)C(O)C(C)O4)C(CC)C(C)O3)C(C)/C=C/C3C(=NNC3C(=O)OCC)C(=O)OC(C(C)C(O)C(C)C3(O)CC(OC4CC(O)C(O)C(C)O4)C(CC)C(C)O3)C(C)/C=C/C21 (stereo not shown) [Verbindung 6],50-60%,50-60%
